The values below come from patent publication US5756301A, “Endogenous taxol-like substance in human serum, monoclonal antibodies directed thereto and methods of assaying therefor” (The Trustees of Columbia University in the City of New York, priority 1993, dated 1998).

“Also recorded” adds a separate entry of the source. Read-outs that look alike come from different tables or passages of the source. Some results are limits rather than exact numbers.

In one data set the test system is KB cells. The following applies: cited from earlier work.
The next data set concerns 69E4A8E. Put plainly: Competitive ELISA, inhibition of binding of 69E4A8E to taxol-RSA. Further details: species or system mouse. As for the experimental part: (§1) Spleen cells were fused with nonsecreting myeloma cells P3 ×63-Ag8.653 (13), according to the method of Sharon et al. (14). […] Clones positive by competitive ELISA were subcloned twice by limiting dilution. Ascites were obtained by injecting 10^6 to 10^7 cells i.p. into BALB/c mice that had been primed with IFA i.p. 5 days before.
(§2) The wells were washed with PBS-T-20 three times and blocked with 200 ul of PBS, containing 1% fetal calf serum, for 1 hour at 37° C. […] After washing four times with PBS-T-20, bound antibodies were detected with 100 ul of 1/3000 dilution of peroxidase-labeled goat anti-mouse IgG+IgM in PBS-T-20 for 1 hour at 37° C. Color was developed and absorbance was measured as described above.

Another data set deals with 29B7B3C. Briefly: Competitive ELISA, inhibition of binding of 29B7B3C to taxol-RSA. Further details: species or system mouse. As to the method: as §1, §2
Data set [1] relates to rabbit anti-taxol antiserum. Put plainly: RIA: inhibition of binding of rabbit anti-taxol antiserum to [3H]taxol. The following applies: for Affinity of rabbit antibodies (in words): [3H]taxol. As to the method:
(§3) Bound ligand was separated from free by the addition of 100 ul of a 2.5% dextran-coated charcoal solution in RIA buffer, incubation for 3 min at 4° C. and centrifugation in an Eppendorf centrifuge for 2 min.

In another data set the test system is microtubules / tubulin. The following applies: cited from earlier work.
The test system of a further data set is tumor. The following applies: cited from earlier work.
Data set [2] relates to ovarian and breast cancer and melanoma. The following applies: clinical trials; cited from earlier work.
For data set [3] the following is noted: read-out: Peak taxol level in plasma; 200 to 250 mg/m^2 infusion over 24 hours; cited from earlier work.
The subject of data set [4] is antibodies specific for taxol (one rabbit antiserum and two monoclonal antibodies). Put plainly: Binding to all of the antibodies (rabbit antiserum, 69E4A8E, 29B7B3C). Further details: species or system rabbit; mouse. The following applies: 69E4A8E and 29B7B3C. As for the experimental part:
Polystyrene microplates were coated with 100 ul of taxol-RSA (250ng/ml) in 0.1 M sodium bicarbonate, pH=9.3, overnight at 4° C. The wells were washed with PBS-T-20 three times and blocked with 200 ul of PBS, containing 1% fetal calf serum, for 1 hour at 37° C. […] After washing four times with PBS-T-20, bound antibodies were detected with 100 ul of 1/3000 dilution of peroxidase-labeled goat anti-mouse IgG+IgM in PBS-T-20 for 1 hour at 37° C. Color was developed and absorbance was measured as described above.
as §3

For data set [5] the following is noted: clinical trials; cited from earlier work.
Where [6] appears, read: relative to taxol = 1, data from reference 10.

`CC[Si](CC)(CC)O[C@@H](C(=O)O[C@H]1C[C@@]2(O)[C@@H](OC(=O)c3ccccc3)[C@@H]3[C@]4(OC(C)=O)CO[C@@H]4C[C@H](O)[C@@]3(C)C(=O)[C@H](OC(C)=O)C(=C1C)C2(C)C)[C@@H](NC(=O)c1ccccc1)c1ccccc1` [2'-(Triethylsiyl) taxol, 2'-(triethylsilyl)taxol]: the “Relative IC50, cytotoxicity (KB cells)” value in the data set on KB cells (human) is reported as 30,000.
As for `CC(=O)O[C@H]1C(=O)[C@]2(C)[C@H](O)C[C@H]3OC[C@@]3(OC(C)=O)[C@H]2[C@H](OC(=O)c2ccccc2)[C@]2(O)C[C@H](OC(=O)[C@H](O)[C@@H](NC(=O)c3ccccc3)c3ccccc3)C(C)=C1C2(C)C` [7-Epitaxol, 7-epitaxol], the “Binding affinity / recognition by 69E4A8E (in words)” value (“Binding affinity / recognition” below) in the data set on 69E4A8E (competitive ELISA) is reported as “higher binding affinities”. Besides, the “Binding affinity of 29B7B3C (in words)” value in the data set on 29B7B3C (competitive ELISA) is reported as “higher binding affinities”.
Consider `CC(=O)O[C@@]12CO[C@@H]1C[C@H](O)[C@@]1(C)C(=O)[C@H](O)C3=C(C)[C@@H](O)C[C@@](O)([C@@H](OC(=O)c4ccccc4)[C@H]21)C3(C)C` [10-deacetylbaccatin III], for which the “Relative IC50, cytotoxicity (KB cells)” value in the data set with KB cells (human) is 400.
Turning to `CC(=O)OC[C@@]1(O)[C@H]2[C@H](OC(=O)c3ccccc3)[C@]3(O)C[C@H](OC(=O)[C@H](O)[C@@H](NC(=O)c4ccccc4)c4ccccc4)C(C)=C([C@@H](OC(C)=O)C(=O)[C@]2(C)[C@@H](O)C[C@@H]1O)C3(C)C` [20-acetoxy-4-deacetyl-5-epi-20,0-secotaxol], the “Affinity lower than taxol (orders of magnitude)” value in data set [1] (RIA, lower than taxol) is listed as “about 3 orders of magnitude”. For the same compound, in the data set with KB cells (setting [6]), the “Relative IC50, cytotoxicity (KB cells)” value was > 100,000.
For `CC(=O)O[C@H]1C(=O)[C@@]2(C)[C@H]([C@H](OC(=O)c3ccccc3)[C@]3(O)C[C@H](O)C(C)=C1C3(C)C)[C@]1(OC(C)=O)CO[C@@H]1C[C@@H]2O` [Baccatin III, baccatin III], the “Affinity lower than taxol (orders of magnitude)” value in data set [1] is given as “about 3 orders of magnitude”. Further, the “Relative IC50, cytotoxicity (KB cells)” value in the data set on KB cells (human) is recorded as 1,700.
On to `C/C=C(\C)C(=O)N[C@@H](c1ccccc1)[C@@H](O)C(=O)O[C@H]1C[C@@]2(O)[C@@H](OC(=O)c3ccccc3)[C@@H]3[C@]4(OC(C)=O)CO[C@@H]4C[C@H](O)[C@@]3(C)C(=O)[C@H](OC(C)=O)C(=C1C)C2(C)C` [Cephalomannine, cephalomannine], for which the “Affinity of rabbit antibodies (in words)” value in data set [1] (RIA) is “almost equal affinity”. Moreover, the “Relative IC50, cytotoxicity (KB cells)” value with KB cells (setting [6]) was 3.2. In the data set with 29B7B3C (competitive ELISA), the “Binding affinity of 29B7B3C (in words)” value is “higher binding affinities”.
A word on the IC50: it is the point on the concentration scale where inhibition reaches its midpoint. Read a high IC50 as weaker potency. Take `CC(=O)O[C@H]1C(=O)[C@@]2(C)[C@H]([C@H](OC(=O)c3ccccc3)[C@]3(O)C[C@H](OC(=O)[C@H](O)[C@@H](NC(=O)c4ccccc4)c4ccccc4)C(C)=C1C3(C)C)[C@]1(OC(C)=O)CO[C@@H]1C[C@@H]2O` [Taxol]: the “Affinity of rabbit antibodies (in words)” value in data set [1] (RIA) is reported as “almost equal affinity”. Also, the “Effect on microtubule assembly / tubulin polymerization” value with microtubules / tubulin was “promote and stabilize microtubule assembly and inhibit disassembly to tubulin”. Moreover, the Antitumor activity entry in the data set on tumor is “shown to have antitumor activity”. In the data set with 69E4A8E, the “Binding affinity / recognition” value was “higher binding affinities”. Moreover, the IC50 on 69E4A8E (ELISA, 69E4A8E) was around 100 nM; at 29B7B3C (ELISA, 29B7B3C), around 100 nM. In addition, the Clinical efficacy result in data set [2] is “affective in the treatment of ovarian (5, 6) and breast cancer (7) and melanoma (8)”. Moreover, the Cmax in data set [3] is above 600 nM. The “Binding by all antibodies (in words)” value in data set [4] is “bind taxol and active derivatives well”. For the same compound, in the data set with 29B7B3C, the “Binding affinity of 29B7B3C (in words)” value is listed as “higher binding affinities”. Further, the Side effects entry in [5] is “neutropenia, hypersensitivity reactions mucositis, neurological and possible cardiac toxicity”.
Turning to `CC(=O)O[C@@]12CO[C@@H]1C[C@H](O)[C@@]1(C)C(=O)[C@H](O)C3=C(C)[C@@H](OC(=O)[C@H](O)[C@@H](NC(=O)OC(C)(C)C)c4ccccc4)C[C@@](O)([C@@H](OC(=O)c4ccccc4)[C@H]21)C3(C)C` [Taxotere], the “Affinity of rabbit antibodies (in words)” value in data set [1] (RIA) was “inability of the rabbit serum and 69E4A8E to recognize taxotere”. For the same compound, the “Affinity lower than taxol (fold)” value in data set [1] (RIA, lower affinity than taxol) is given as 100 fold. For the same compound, the “Binding affinity / recognition” value in the data set with 69E4A8E (competitive ELISA) was “recognized poorly; also recorded: inability of the rabbit serum and 69E4A8E to recognize taxotere”. Also, the “Binding affinity of 29B7B3C (in words)” value in the data set with 29B7B3C (competitive ELISA) was “binds taxotere as well as it does taxol”.
For the compound `COc1cc([C@@H]2c3cc4c(cc3[C@H](O)[C@H]3COC(=O)[C@H]23)OCO4)cc(OC)c1OC` [podophyllotoxin], in the data set on microtubules / tubulin, the “Effect on microtubule assembly / tubulin polymerization” value is “inhibit tubulin polymerization”.
Consider `CC[C@]1(O)C[C@@H]2CN(CCc3c([nH]c4ccccc34)[C@@](C(=O)OC)(c3cc4c(cc3OC)N(C)[C@H]3[C@@](O)(C(=O)OC)[C@H](OC(C)=O)[C@]5(CC)C=CCN6CC[C@]43[C@@H]65)C2)C1` [vinblastine], for which, in the data set with microtubules / tubulin, the “Effect on microtubule assembly / tubulin polymerization” value is on record as “inhibit tubulin polymerization”.
